Data reported in ChEMBL document CHEMBL3507680, “University of Dundee, Gates Library screen for HepG2 cell viability”.

Experiment: Human HepG2 cell viability assay in 384 well format
Format: toxicity, cell-based
Design: dose 125 nL, time 70.5 hour; cytotoxicity at 70.5 h: concentration not given beside the values
Conditions: HepG2 cells, read-out: Inhibition

Compound `O=C(NCc1cccnc1)c1cn(CCc2ccccc2)nn1` has a cytotoxicity at 70.5 h of 14%.

For `CCC(C)(C)n1nnnc1C(c1cccs1)N1CCCCC1` (stereo not given), the cytotoxicity at 70.5 h was -3.15%.

In the case of `CN1CCc2nnc(C3CCCN3S(=O)(=O)c3ccc(F)cc3)n2CC1` (stereo not given), the cytotoxicity at 70.5 h is reported as -3.97%.

`c1cnnc(N[C@@H]2CC[C@@H]3CN(Cc4ccc5[nH]ccc5c4)C[C@@H]32)c1` gave a cytotoxicity at 70.5 h of 2.98%.

In the case of `Cc1cc(N2CCC(O)(CN(C)C(=O)CCN)C2)c2cnccc2n1` (stereo not given), the cytotoxicity at 70.5 h is reported as -4.6%.

Work on `Cc1cc(N2CCC(O)(CN(C)C(=O)CCCN)C2)c2cnccc2n1` (stereo not given) yielded a cytotoxicity at 70.5 h of -0.861%.

`Cc1cn([C@H]2CCNC[C@]2(C)O)c(=O)[nH]c1=O` showed a cytotoxicity at 70.5 h of 4.8%.

For `CCN1CCCc2cc(CN3CCc4nc(C)[nH]c(=O)c4C3)ccc21`, the cytotoxicity at 70.5 h was -0.248%.

`CCN1CCCc2cc(CN3CCc4c(nc(C)[nH]c4=O)C3)ccc21` showed a cytotoxicity at 70.5 h of -3.71%.

`Cc1cc(-c2ccc(=O)n(CCNC(=O)C3CCC3)n2)c(C)o1` showed a cytotoxicity at 70.5 h of 15.6%.

Work on `Cc1cc(-c2ccc(=O)n(CCNC(=O)C3CCCCC3)n2)c(C)o1` yielded a cytotoxicity at 70.5 h of -1.98%.

Work on `CN(C)c1nccc(C2CN(c3cnccn3)CCO2)n1` (stereo not given) yielded a cytotoxicity at 70.5 h of 13.3%.

`Cc1nc(NCCN2CCCC2=O)cc(C2CN(C)CCO2)n1` (stereo not given) gave a cytotoxicity at 70.5 h of 1.86%.

For `CCc1cc(=O)[nH]c(NC2CCN(S(=O)(=O)c3ccccc3)CC2)n1`, the cytotoxicity at 70.5 h was -7.53%.

For `Cc1ccc(-c2nc(C3CCN(C(=O)c4ccnn4C)CC3)no2)cn1`, the cytotoxicity at 70.5 h was -7.4%.

Compound `O=C1CCC(c2nc(C3CCNCC3)no2)N1` (stereo not given) has a cytotoxicity at 70.5 h of -6.87%.

In the case of `O=C1CCC(c2nc(C3CCN(C(=O)C4CC4)CC3)no2)N1` (stereo not given), the cytotoxicity at 70.5 h is reported as -4.42%.

For `Cn1cc(CN2CCc3nc4ccccc4c(=O)n3CC2)cn1`, the cytotoxicity at 70.5 h was -1.93%.

`Cc1cc(Nc2ccc(F)cn2)cc(C2CCCN2)n1` (stereo not given) gave a cytotoxicity at 70.5 h of -7.05%.

`CS(=O)(=O)N[C@@H]1CN(Cc2ccc3ccccc3c2)C[C@H]1O` gave a cytotoxicity at 70.5 h of -2.76%.

With `O=C(NC[C@]1(O)CN(Cc2ncccc2F)C[C@H]1O)c1cc[nH]n1` the cytotoxicity at 70.5 h was 21.3%.

`O=C(NC[C@]1(O)CCN(Cc2ccccc2F)C[C@H]1O)c1c[nH]cn1` gave a cytotoxicity at 70.5 h of -0.237%.

In the case of `Cc1cncc(CN2CC[C@@](O)(CNC(=O)c3c[nH]cn3)[C@H](O)C2)c1`, the cytotoxicity at 70.5 h is reported as -6.5%.

With `Cc1ocnc1C(=O)N(C)[C@@H]1CCC[C@@H](N2CCCC2)[C@@H]1O` the cytotoxicity at 70.5 h was 25.2%.

Work on `Cc1nccn1[C@@H]1CC[C@@H](NC(=O)CCCn2cccn2)[C@H]1O` yielded a cytotoxicity at 70.5 h of 19.3%.

`Cc1noc(C)c1-c1nc(C2CCCN(C(=O)CCN)C2)ccc1CO` (stereo not given) showed a cytotoxicity at 70.5 h of -1.78%.

For `Cc1ocnc1C(=O)N(C)[C@@H]1CC[C@@H](n2ccnc2C)[C@@H]1O`, the cytotoxicity at 70.5 h was -7.34%.

Work on `Cc1noc(C)c1-c1nc(C2CCCN(C(=O)C(C)C)C2)ccc1CO` (stereo not given) yielded a cytotoxicity at 70.5 h of -2.96%.

Compound `CN(C)CC1(O)CCN(C(=O)Cc2ccc3c(c2)CCCC3)C1` (stereo not given) has a cytotoxicity at 70.5 h of -7%.

`FC(F)(F)c1cc(C2CCN(c3cnccn3)CC2)n2ccnc2n1` gave a cytotoxicity at 70.5 h of -5.4%.

`CNC(=O)CNC(=O)c1ccc(-c2scnc2C)nc1` showed a cytotoxicity at 70.5 h of -0.926%.

For `Cc1cc(C(=O)N2CCCC(c3cc(=O)nc4n3CCC4)C2)on1` (stereo not given), the cytotoxicity at 70.5 h was -6.58%.

`Nc1nccc(C2CCN(c3cnccn3)C2)n1` (stereo not given) gave a cytotoxicity at 70.5 h of 21.1%.

Work on `Cc1ccccc1OC1CCN(CC(=O)Nc2cn(C)nc2C)CC1` yielded a cytotoxicity at 70.5 h of -1.78%.

Work on `Cc1cc(C)n(CC(=O)N2CCC(c3ccn4nccc4n3)CC2)n1` yielded a cytotoxicity at 70.5 h of 26.6%.

`CCCN1CCC(c2cc(CCOc3ccc(C(F)(F)F)cc3)[nH]n2)C1` (stereo not given) showed a cytotoxicity at 70.5 h of 0.882%.

Work on `CCC(C)NC(=O)c1cc(S(=O)(=O)N2CCCC2)c(C)s1` (stereo not given) yielded a cytotoxicity at 70.5 h of -3.53%.

`Cc1cc(Nc2ccc(F)cn2)cc(C2CCN(Cc3ncc[nH]3)C2)n1` (stereo not given) showed a cytotoxicity at 70.5 h of -0.353%.

With `CC(=O)N1CCCC1c1nc(CN(C)C(=O)C(C)C)cc(N(C)C)n1` (stereo not given) the cytotoxicity at 70.5 h was -4.11%.

With `CO[C@@H]1CC[C@@H](NS(=O)(=O)c2cn(C)nc2C)[C@H]1O` the cytotoxicity at 70.5 h was -1.72%.

`Cc1cc2ccccc2n1CCC(=O)N1CCN(C)CC1C(N)=O` (stereo not given) showed a cytotoxicity at 70.5 h of -2.15%.

`Cc1ncc(CNC(=O)CCc2ccccc2F)c(C2CCCN2C)n1` (stereo not given) gave a cytotoxicity at 70.5 h of -0.236%.

In the case of `O=C(Cc1ccsc1)N1CCCCC1c1ccn2ccnc2n1` (stereo not given), the cytotoxicity at 70.5 h is reported as 8.15%.

`O=C(Cc1ccccc1F)N1CCCCC1c1ccn2ccnc2n1` (stereo not given) showed a cytotoxicity at 70.5 h of -6.86%.

Work on `COc1cccc(CC(=O)NCc2cnc(C)nc2C2CCCN2C)c1` (stereo not given) yielded a cytotoxicity at 70.5 h of -6.33%.

`COc1cc(CN2CC[C@H](NC(C)=O)[C@@H](O)CC2)ccc1F` showed a cytotoxicity at 70.5 h of 12.1%.

`CC(=O)N1CCN([C@@H]2CCC[C@@H](NC(=O)c3cccnc3)[C@H]2O)CC1` showed a cytotoxicity at 70.5 h of -11.5%.

Work on `CC(=O)N1CCN([C@@H]2CC[C@@H](NC(=O)c3cc(C)cs3)[C@H]2O)CC1` yielded a cytotoxicity at 70.5 h of -4.78%.

For `CC(=O)N1CCC(Cc2cccc(-c3c(C)noc3C)n2)C1` (stereo not given), the cytotoxicity at 70.5 h was -7.61%.

`CCC(=O)N1CCC(c2cncc(Oc3cccnc3)n2)CC1` showed a cytotoxicity at 70.5 h of -5.07%.

Compound `CCC(=O)N1CCC1c1cc(NC2CCCC2)nc(C)n1` (stereo not given) has a cytotoxicity at 70.5 h of -2.68%.

`Cc1nc(CCC(=O)NCC(N)=O)cc(C2CCNCC2)n1` gave a cytotoxicity at 70.5 h of -6.67%.

`CC1(C(=O)N2CCOCC2)CN(Cc2ncc[nH]2)CCO1` (stereo not given) showed a cytotoxicity at 70.5 h of 11.7%.

Work on `COCCC(=O)N1CCCC1c1nc(O)cc(-c2ccccn2)n1` (stereo not given) yielded a cytotoxicity at 70.5 h of -5.06%.

`O=C(CN1CCCC1)N1CCCC1c1nc(O)cc(-c2ccccn2)n1` (stereo not given) gave a cytotoxicity at 70.5 h of 11.1%.
